Data reported in paper PMC8745178, “Methyl 2-Halo-4-Substituted-5-Sulfamoyl-Benzoates as High Affinity and Selective Inhibitors of Carbonic Anhydrase IX” (International Journal of Molecular Sciences, 2021).
Where “and” joins values, the source holds several entries; their conditions need not be identical. Equal values may be shown once.

Tests used:
CAII [1] = biological target: T1, CAII (Homo sapiens, UniProt P00918); assay: fluorescent thermal shift assay (FTSA), CAII; type: binding; conditions: 37 °C
CAII [2] = assay: fluorescent thermal shift assay (FTSA), CAII; type: binding, human; conditions: intrinsic
CAXIII = CAXIII (Homo sapiens, UniProt Q8N1Q1); assay: fluorescent thermal shift assay (FTSA), CAXIII; type: binding; conditions: converted from Kd_obs, 37 °C, pH 7.0, FTSA
Chain of CAXIII (Q8N1Q1 whole entry): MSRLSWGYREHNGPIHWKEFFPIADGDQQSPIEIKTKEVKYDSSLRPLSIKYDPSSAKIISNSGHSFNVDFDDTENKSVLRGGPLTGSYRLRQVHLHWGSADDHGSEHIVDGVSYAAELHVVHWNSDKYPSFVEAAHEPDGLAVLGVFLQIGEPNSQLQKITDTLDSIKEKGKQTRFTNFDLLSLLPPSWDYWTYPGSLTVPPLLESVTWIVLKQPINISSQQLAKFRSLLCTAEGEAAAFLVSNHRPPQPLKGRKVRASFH

[3] = 37 °C
CAI [4] = biological target: T2, CAI (Homo sapiens, UniProt P00915)
T2 sequence (P00915 whole entry): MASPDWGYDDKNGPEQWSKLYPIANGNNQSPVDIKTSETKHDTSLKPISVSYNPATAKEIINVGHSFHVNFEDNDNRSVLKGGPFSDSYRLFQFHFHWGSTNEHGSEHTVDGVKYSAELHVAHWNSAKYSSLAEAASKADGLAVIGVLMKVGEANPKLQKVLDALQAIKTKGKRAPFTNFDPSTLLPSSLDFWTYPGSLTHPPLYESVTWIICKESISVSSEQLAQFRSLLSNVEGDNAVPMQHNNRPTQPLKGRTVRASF

CAII [5] = biological target: T1, CAII
CAI [6] = biological target: T2, CAI; assay: fluorescent thermal shift assay (FTSA), CAI; type: binding; conditions: 37 °C
CAIX = CAIX (Homo sapiens, UniProt Q16790); assay: fluorescent thermal shift assay (FTSA), CAIX; type: binding; conditions: pH 7
CAVII = CAVII (Homo sapiens, UniProt P43166); assay: fluorescent thermal shift assay (FTSA), CAVII; type: binding; conditions: 37 °C
Chain of CAVII (P43166 whole entry): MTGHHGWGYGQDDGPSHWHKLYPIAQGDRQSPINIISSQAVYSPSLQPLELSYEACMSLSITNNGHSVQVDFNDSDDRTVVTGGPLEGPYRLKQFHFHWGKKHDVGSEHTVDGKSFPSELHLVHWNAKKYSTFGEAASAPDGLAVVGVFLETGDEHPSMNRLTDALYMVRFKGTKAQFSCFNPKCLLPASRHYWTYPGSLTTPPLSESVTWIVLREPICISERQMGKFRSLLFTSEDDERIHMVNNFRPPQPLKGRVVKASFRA

CAXIV = CAXIV (Homo sapiens, UniProt Q9ULX7); assay: fluorescent thermal shift assay (FTSA), CAXIV; type: binding; conditions: converted from Kd_obs, 37 °C, pH 7.0, FTSA
Chain of CAXIV (Q9ULX7 16-337): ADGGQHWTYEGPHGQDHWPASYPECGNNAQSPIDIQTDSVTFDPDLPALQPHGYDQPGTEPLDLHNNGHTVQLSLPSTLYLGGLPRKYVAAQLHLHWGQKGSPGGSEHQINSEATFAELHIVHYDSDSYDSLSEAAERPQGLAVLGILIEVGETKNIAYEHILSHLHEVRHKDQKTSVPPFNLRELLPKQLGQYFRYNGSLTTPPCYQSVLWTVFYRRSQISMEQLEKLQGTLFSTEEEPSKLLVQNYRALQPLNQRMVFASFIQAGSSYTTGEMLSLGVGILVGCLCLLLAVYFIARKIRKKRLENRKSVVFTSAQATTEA

CAVI = CAVI (Homo sapiens, UniProt P23280); assay: fluorescent thermal shift assay (FTSA), CAVI; type: binding; conditions: 37 °C
Chain of CAVI (P23280 18-308): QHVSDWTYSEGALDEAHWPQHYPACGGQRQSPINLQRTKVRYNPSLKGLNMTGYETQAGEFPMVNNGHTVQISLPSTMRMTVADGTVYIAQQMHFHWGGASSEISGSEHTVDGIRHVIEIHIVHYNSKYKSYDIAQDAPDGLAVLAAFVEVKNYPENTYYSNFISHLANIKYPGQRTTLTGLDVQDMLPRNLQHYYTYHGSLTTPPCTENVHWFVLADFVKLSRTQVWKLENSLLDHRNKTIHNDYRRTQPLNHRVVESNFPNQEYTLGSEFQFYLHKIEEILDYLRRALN

[7] = determination of pKa of the sulfonamide group by UV-VIS spectra at various pH; type: physicochemical
CAXII = CAXII (Homo sapiens, UniProt O43570)
Chain of CAXII (O43570 25-354): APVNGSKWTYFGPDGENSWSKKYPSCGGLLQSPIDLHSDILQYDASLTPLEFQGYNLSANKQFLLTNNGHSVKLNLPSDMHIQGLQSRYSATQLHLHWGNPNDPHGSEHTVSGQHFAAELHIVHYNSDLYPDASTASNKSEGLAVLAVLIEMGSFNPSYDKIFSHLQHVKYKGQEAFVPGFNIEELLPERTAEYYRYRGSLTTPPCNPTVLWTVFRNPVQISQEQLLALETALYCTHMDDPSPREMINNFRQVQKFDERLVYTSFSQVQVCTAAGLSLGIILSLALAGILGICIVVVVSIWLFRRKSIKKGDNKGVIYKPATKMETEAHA

CAVB = CAVB (Homo sapiens, UniProt Q9Y2D0); assay: fluorescent thermal shift assay (FTSA), CAVB; type: binding; conditions: 37 °C
Chain of CAVB (Q9Y2D0 34-317): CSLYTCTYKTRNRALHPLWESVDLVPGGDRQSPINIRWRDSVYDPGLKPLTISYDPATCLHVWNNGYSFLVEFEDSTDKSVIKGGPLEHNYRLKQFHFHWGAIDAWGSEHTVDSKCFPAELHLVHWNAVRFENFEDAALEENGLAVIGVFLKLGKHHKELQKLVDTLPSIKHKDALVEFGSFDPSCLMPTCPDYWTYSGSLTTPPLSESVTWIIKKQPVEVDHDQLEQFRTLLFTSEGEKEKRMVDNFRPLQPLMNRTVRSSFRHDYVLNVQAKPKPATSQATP

[8] = converted from Kd_intr, independent of pH
[9] = converted from Kd_obs, pH 7.0, FTSA
[10] = intrinsic, 37 °C, independent of pH and buffer
[11] = observed, sodium phosphate buffer pH 7.0, 37 °C, ITC

COC(=O)c1cc(S(N)(=O)=O)c(Cl)cc1S(=O)(=O)c1ccccc1 [Compound 9a, Methyl 2-(benzenesulfonyl)-4-chloro-5-sulfamoylbenzoate]
ΔGintr CAII (CAII [1]; [8]): -63.1 kJ/mol
ΔGobs CAII (CAII [1]; [9]): -53.7 kJ/mol
binding to CAII stronger than to CAXII (factor) (CAII [2]): 26 fold
ΔGobs CAXIII (CAXIII): -49.0 kJ/mol
Δp_RSO2NH2H, protonation enthalpy of sulfonamide group [3]: -28.9 kJ/mol
ΔHintr CAI (CAI [4]; [10]): -39.7 kJ/mol
ΔHobs CAI (CAI [4]; [11]): -17.8 kJ/mol
ΔHintr CAII (CAII [5]; [10]): -23.3 kJ/mol
ΔHobs CAII (CAII [5]; [11]): -10.3 kJ/mol
ΔGintr CAI (CAI [6]; [8]): -48.1 kJ/mol
ΔGobs CAI (CAI [6]; [9]): -40.6 kJ/mol
ΔGobs CAIX (CAIX): -50.3 kJ/mol
ΔGintr CAVII (CAVII; [8]): -65.2 kJ/mol
ΔGobs CAVII (CAVII; [9]): -55.5 kJ/mol
ΔGobs CAXIV (CAXIV): -53.9 kJ/mol
ΔGintr CAVI (CAVI; [8]): -56.5 kJ/mol
ΔGobs CAVI (CAVI; [9]): -43.1 kJ/mol
f RSO2NH-, fraction of deprotonated sulfonamide ([7]; at pH 7.0, calculated from pKa): 5.9% and 5.94%
pKa ([7]; calculated from spectra at various pH, 37 °C): 8.2
-TΔSintr CAXII (CAXII; intrinsic, 37 °C): -17.2 kJ/mol
ΔHintr CAXII (CAXII; [10]): -38.0 kJ/mol
ΔHobs CAXII (CAXII; [11]): -27.4 kJ/mol
ΔGintr CAVB (CAVB; [8]): -55.8 kJ/mol
ΔGobs CAVB (CAVB; [9]): -46.8 kJ/mol
